Results reported in patent US9084778B2, “Topical compositions containing a retinoid of the oil-in-water emulsion type” (GALDERMA RESEARCH & DEVELOPMENT, priority 2012, dated 2015).

What was measured:
[1] = Stability of compound A in mixtures of excipients (solvent/surfactants) determined by HPLC; format: physicochemical
Source text: (3) Stability of compound A in mixtures of excipients (solvent/surfactants) determined by HPLC:
Studies of stability of compound A solubilised in oils (in which it is stable) in the presence of surfactants have been conducted:
(§1) The limits fixed for high stability are 95%-105% as a percentage relative to TO.

[2] = Maximum solubility in fat phase excipients determined by HPLC; format: physicochemical
Source text: In order to obtain an oil in water emulsion containing a compound with the general formula (I) in the fat phase, pre-formulation studies have been conducted to provide evidence of the excipients allowing good solubilisation as well as good stability of the active ingredient.
(1) List of fat phase excipients in which the maximum solubility has been determined by HPLC:
The limit, below which the compounds of general formula (1) are considered non-solubilized, is 0.1% by weight.

[3] = Stability of compound A in its principal solvents; format: physicochemical
Source text: (2) Stability of compound A in its principal solvents:
as §1

[4] = "Single time" cutaneous penetration study ex vivo (Franz cells, 16 h); format: in vitro ADME; details: ex vivo human skin, the 2 formulae evaluated
Method: Two types of cutaneous penetration studies were carried out ex vivo on human skin. In these studies compound A corresponds to 3″-tert-butyl-4′-(2-hydroxy-ethoxy)-4″-pyrrolidin-1-yl-[1,1′;3′,1″]-terphenyl-4-carboxylic acid.
“Single Time” Cutaneous Penetration Study:
In this study the Formula is applied for 16 hours to the surface of the skin. After the application COMPOUND A is quantified in the different compartments of the skin: stratum corneum, epidermis, dermis and receiving liquid according to the validated bioanalysis method.
The bioanalysis was conducted by mass spectrometry in tandem by positive electrospray ionisation using a Xevo device (Waters). The limit of quantification for compound A is 1 ng/mL.
The conditions of LC/MS/MS developed enabled up to 0.1% of the doe applied in each of the compartments to be detected (unabsorbed dose, stratum, epidermis, dermis and receiving liquid).
In this type of “single point” study the parameters considered are: • a. The distribution profile in the different compartments (qualitative data) • b. The penetration in the epidermis+dermis compartment (numerical data) FIG. 1

Stability results ([1]; COMPOUND A 0.05% in Arlacel 165/Arlamol E, 40° C.): Stable/Ok 3 Months
Stability results ([1]; COMPOUND A 0.05% in Arlacel 165/Lauroglycol FCC): Unstable
Stability results ([1]; COMPOUND A 0.05% in Brij 721/Arlamol E, 40° C.): Stable/Ok 3 Months
Stability results ([1]; COMPOUND A 0.05% in Brij 721/Lauroglycol FCC, 40° C.): Stable/Ok 3 Months
Stability results ([1]; COMPOUND A 0.05% in Cremophor EL/Labrafil M1944CS): Unstable
Stability results ([1]; COMPOUND A 0.05% in Cremophor EL/Lauroglycol FCC): Unstable
Stability results ([1]; COMPOUND A 0.05% in Eumulgin B2/Arlamol E, 40° C.): Stable/Ok 3 Months
Stability results ([1]; COMPOUND A 0.05% in GlucateSS-Glucamate SSE-20/Arlamol E): Unstable
Stability results ([1]; COMPOUND A 0.05% in GlucateSS-Glucamate SSE-20/Lauroglycol FCC, 40° C.): Stable/Ok 3 Months
Stability results ([1]; COMPOUND A 0.05% in Simulsol M45/Crodamol DA): Unstable
Stability results ([1]; COMPOUND A 0.05% in Tween 80/Arlamol E): Unstable
Stability results ([1]; COMPOUND A 0.2% in Cremophor EL/Labrafil M1944CS): Unstable
Stability results ([1]; COMPOUND A 0.2% in Cremophor RH40/Crodamol DA): Unstable
Stability results ([1]; COMPOUND A 0.2% in Simulsol M45/Crodamol DA): Unstable
Stability results ([1]; COMPOUND A 0.2% in Tween 80/Hexylene glycol): Unstable
Stability results ([1]; COMPOUND A 0.2% in Tween 80/Lauroglycol FCC): Unstable
Maximum solubility ([2]; in Arlasolve DMI (Dimethyl Isosorbide)): 0.400%
Maximum solubility ([2]; in Benzyl alcohol (Benzyl Alcohol)): 2.388%
Maximum solubility ([2]; in Brij 30 (Laureth-4)): 2.03%
Maximum solubility ([2]; in Capryol 90 (Propylene glycol monocaprylate)): 0.802%
Maximum solubility ([2]; in Crodamol IPM (Isopropyl myristate)): <0.1%
Maximum solubility ([2]; in Hydrolite 5P (Pentylene glycol)): 0.482%
Maximum solubility ([2]; in Phenoxetol (Phenoxyethanol)): 1.957%
Stability results ([3]; COMPOUND A 0.005% in Miglyol 812N (Caprylic/capric triglycerides), 40° C.): Stable/Ok 6 Months
Stability results ([3]; COMPOUND A 0.005% in Sweet almond oil, 40° C.): Stable/Ok 6 Months
Stability results ([3]; COMPOUND A 0.05% in Arlacel 83V Pharma (Sorbitan Sesquioleate), 40° C.): Stable/Ok 6 Months
Stability results ([3]; COMPOUND A 0.05% in Arlamol E (PPG-15 stearyl ether), 40° C.): Stable/Ok 6 Months
Stability results ([3]; COMPOUND A 0.05% in Arlasolve DMI (Dimethyl Isosorbide)): Unstable
Stability results ([3]; COMPOUND A 0.05% in Benzyl Alcohol): Unstable
Stability results ([3]; COMPOUND A 0.05% in Brij 30 (Laureth-4)): Unstable
Stability results ([3]; COMPOUND A 0.05% in Capryol 90 (Propylene glycol monocaprylate), 40° C.): Stable/Ok 6 Months
Stability results ([3]; COMPOUND A 0.05% in Crodamol DA (Diisopropyl Adipate), 40° C.): Stable/Ok 6 Months
Stability results ([3]; COMPOUND A 0.05% in Dipropylene Glycol Care (Dipropylene glycol)): Unstable
Stability results ([3]; COMPOUND A 0.05% in Eutanol G (Octyldodecanol)): Unstable
Stability results ([3]; COMPOUND A 0.05% in Labrafil M1944CS (Apricot Kernel Oil PEG-6 Ester), 40° C.): Stable/Ok 6 Months
Stability results ([3]; COMPOUND A 0.05% in Lauroglycol FCC (Propylene glycol laurate), 40° C.): Stable/Ok 6 Months
Stability results ([3]; COMPOUND A 0.05% in Marcol 152 (Parrafinum liquidum)): Unstable
Stability results ([3]; COMPOUND A 0.05% in Myritol PC (Propylene glycol dicaprylate/dicaprate)): Unstable
Stability results ([3]; COMPOUND A 0.05% in Phenoxetol (Phenoxyethanol), 40° C.): Stable/Ok 6 Months
Compound A in the receiving liquid [4]: not detected
SMILES: CC(C)(C)c1cc(-c2cc(-c3ccc(C(=O)O)cc3)ccc2OCCO)ccc1N1CCCC1 [Compound A, 3″-tert-butyl-4′-(2-hydroxy-ethoxy)-4″-pyrrolidin-1-yl-[1,1′;3′,1″]-terphenyl-4-carboxylic acid]
